Data as given in ChEMBL document CHEMBL1137492, “Phenylethyl-substituted pyrimido[2,1-f]purinediones and related compounds: structure-activity relationships as adenosine A(1) and A(2A) receptor ligands” (Bioorg Med Chem, 2007).

What was measured:
[1] = target: T1, Adenosine receptor A2b (Homo sapiens) (UniProt P29275); experiment: Displacement of [3H]ZM-241385 from human adenosine A2B receptor expressed in CHO cells at 10 uM; format: cell-based
T1 sequence (whole entry): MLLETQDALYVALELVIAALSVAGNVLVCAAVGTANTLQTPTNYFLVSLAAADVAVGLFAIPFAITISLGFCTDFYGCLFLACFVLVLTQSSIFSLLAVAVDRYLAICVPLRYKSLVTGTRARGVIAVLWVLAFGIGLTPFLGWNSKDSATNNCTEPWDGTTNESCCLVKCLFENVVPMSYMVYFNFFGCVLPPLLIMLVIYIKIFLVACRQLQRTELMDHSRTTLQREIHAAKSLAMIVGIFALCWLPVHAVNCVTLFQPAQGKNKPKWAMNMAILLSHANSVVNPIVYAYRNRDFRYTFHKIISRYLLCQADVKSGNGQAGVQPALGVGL

[2] = target: T2, Adenosine receptor A3 (Homo sapiens, UniProt P0DMS8); experiment: (§1) Displacement of [3H]PSB11 from human adenosine A3 receptor expressed in CHO cells at 10 uM; format: cell-based
T2 sequence (P0DMS8 whole entry): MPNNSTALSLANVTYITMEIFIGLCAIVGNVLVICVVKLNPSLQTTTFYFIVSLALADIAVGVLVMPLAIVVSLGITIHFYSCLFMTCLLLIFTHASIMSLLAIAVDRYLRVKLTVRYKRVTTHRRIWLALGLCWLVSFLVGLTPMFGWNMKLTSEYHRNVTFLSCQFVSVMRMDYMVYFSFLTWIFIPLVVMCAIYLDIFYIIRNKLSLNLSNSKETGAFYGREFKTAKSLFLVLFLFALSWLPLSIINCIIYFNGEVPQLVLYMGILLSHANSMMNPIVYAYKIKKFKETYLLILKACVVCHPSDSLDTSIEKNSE

[3] = target: Adenosine receptor A2a (Homo sapiens, UniProt P29274); experiment: Displacement of [3H]MSX2 from human adenosine A2A receptor expressed in CHO cells; format: cell-based
[4] = tested on: Mus musculus; experiment: Toxicity in Albino F1 mouse assessed as tonic extension followed by death at 30 mg/kg after 0.5 hrs; format: organism-based; design: dose 30 mg/kg; conditions: in vivo
[5] = target: T3, Adenosine receptor A1 (Rattus norvegicus, UniProt P25099); experiment: Displacement of [3H]CCPA from adenosine A1 receptor in rat brain cortical membrane; format: cell membranes
T3 sequence (P25099 whole entry): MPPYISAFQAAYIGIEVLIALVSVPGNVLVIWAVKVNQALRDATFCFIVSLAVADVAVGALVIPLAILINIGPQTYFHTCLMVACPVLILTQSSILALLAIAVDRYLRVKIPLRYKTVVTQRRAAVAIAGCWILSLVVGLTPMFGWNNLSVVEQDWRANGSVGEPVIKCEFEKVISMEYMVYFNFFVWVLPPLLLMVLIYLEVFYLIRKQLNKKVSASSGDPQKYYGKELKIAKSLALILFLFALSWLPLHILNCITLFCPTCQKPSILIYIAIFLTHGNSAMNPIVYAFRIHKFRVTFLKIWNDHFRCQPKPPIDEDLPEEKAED

[6] = target: T4, Adenosine receptor A2b (Homo sapiens, UniProt P29275); experiment: Displacement of [3H]ZM-241385 from human adenosine A2B receptor expressed in CHO cells; format: cell-based
T4 sequence (P29275 whole entry): T1 sequence (whole entry)

[7] = target: T2, Adenosine receptor A3; experiment: Displacement of [3H]PSB11 from human adenosine A3 receptor expressed in CHO cells; format: cell-based
[8] = target: T5, Adenosine receptor A1 (Homo sapiens, UniProt P30542); experiment: Displacement of [3H]CCPA from human adenosine A1 receptor expressed in CHO cells; format: cell-based
T5 sequence (P30542 whole entry): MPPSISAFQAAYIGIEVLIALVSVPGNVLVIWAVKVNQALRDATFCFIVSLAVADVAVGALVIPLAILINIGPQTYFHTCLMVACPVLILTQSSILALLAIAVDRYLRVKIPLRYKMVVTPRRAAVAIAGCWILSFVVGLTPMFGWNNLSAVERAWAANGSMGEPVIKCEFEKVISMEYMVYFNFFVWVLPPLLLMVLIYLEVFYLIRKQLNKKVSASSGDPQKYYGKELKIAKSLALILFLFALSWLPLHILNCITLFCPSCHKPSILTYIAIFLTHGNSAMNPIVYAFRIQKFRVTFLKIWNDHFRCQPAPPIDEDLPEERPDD

[9] = target: T6, Adenosine receptor A1 (Homo sapiens) (UniProt P30542); experiment: Displacement of [3H]CCPA from human adenosine A1 receptor expressed in CHO cells at 25 uM; format: cell-based
T6 sequence (whole entry): T5 sequence (P30542 whole entry)

[10] = target: Adenosine receptor A2a (Rattus norvegicus, UniProt P30543)
[11] = target: Adenosine receptor A1 (Rattus norvegicus) (UniProt P25099); experiment: Displacement of [3H]CCPA from adenosine A1 receptor in rat brain cortical membrane at 25 uM
[12] = target: Adenosine receptor A2a (Rattus norvegicus) (UniProt P30543); experiment: Displacement of [3H]MSX2 from adenosine A2A receptor in rat brain striatal membrane at 25 uM; format: cell membranes
[13] = target: Adenosine receptor A1 (Rattus norvegicus) (UniProt P25099); experiment: Displacement of [3H]CCPA from adenosine A1 receptor in rat brain cortical membrane at 10 uM
[14] = tested on: Mus musculus; experiment: Toxicity in Albino F1 mouse assessed as tonic extension followed by death at 300 mg/kg after 0.5 hrs; format: organism-based; design: dose 300 mg/kg; conditions: in vivo
[15] = tested on: Mus musculus; experiment: Toxicity in Albino F1 mouse assessed as continuous seizure at 100 mg/kg after 0.5 hrs; format: organism-based; design: dose 100 mg/kg; conditions: in vivo
[16] = target: Adenosine receptor A2a (Rattus norvegicus) (UniProt P30543); experiment: Displacement of [3H]MSX2 from adenosine A2A receptor in rat brain striatal membrane at 10 uM; format: cell membranes
[17] = tested on: Mus musculus; experiment: Toxicity in Albino F1 mouse assessed as death following tonic extension at 300 mg/kg after 0.5 hrs; conditions: in vivo
[18] = target: T1, Adenosine receptor A2b (Homo sapiens); experiment: Displacement of [3H]PSB298 from human adenosine A2B receptor expressed in CHO cells at 10 uM; format: cell-based
[19] = target: T7, Adenosine receptor A3 (Homo sapiens) (UniProt P0DMS8); experiment: as §1; format: cell-based
T7 sequence (whole entry): T2 sequence (P0DMS8 whole entry)

[20] = tested on: Mus musculus; experiment: Toxicity in Albino F1 mouse assessed as continuous seizure followed by death at 100 mg/kg after 0.5 hrs; format: organism-based; design: dose 100 mg/kg; conditions: in vivo

Sequence of Adenosine receptor A2a (Rattus norvegicus, UniProt P30543) (P30543 whole entry): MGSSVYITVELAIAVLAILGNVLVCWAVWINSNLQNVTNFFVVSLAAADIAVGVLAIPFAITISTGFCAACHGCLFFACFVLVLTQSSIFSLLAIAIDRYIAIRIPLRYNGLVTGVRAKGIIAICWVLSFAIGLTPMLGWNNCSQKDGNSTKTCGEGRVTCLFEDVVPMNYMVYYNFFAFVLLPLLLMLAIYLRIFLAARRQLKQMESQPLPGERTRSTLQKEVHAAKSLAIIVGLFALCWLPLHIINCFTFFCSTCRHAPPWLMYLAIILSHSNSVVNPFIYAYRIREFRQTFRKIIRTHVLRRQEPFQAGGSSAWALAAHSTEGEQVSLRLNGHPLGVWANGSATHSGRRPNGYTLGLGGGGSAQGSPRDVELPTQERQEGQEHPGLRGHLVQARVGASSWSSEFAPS
Sequence of Adenosine receptor A2a (Rattus norvegicus) (P30543 whole entry): as above
Sequence of Adenosine receptor A2a (Homo sapiens, UniProt P29274) (P29274 whole entry): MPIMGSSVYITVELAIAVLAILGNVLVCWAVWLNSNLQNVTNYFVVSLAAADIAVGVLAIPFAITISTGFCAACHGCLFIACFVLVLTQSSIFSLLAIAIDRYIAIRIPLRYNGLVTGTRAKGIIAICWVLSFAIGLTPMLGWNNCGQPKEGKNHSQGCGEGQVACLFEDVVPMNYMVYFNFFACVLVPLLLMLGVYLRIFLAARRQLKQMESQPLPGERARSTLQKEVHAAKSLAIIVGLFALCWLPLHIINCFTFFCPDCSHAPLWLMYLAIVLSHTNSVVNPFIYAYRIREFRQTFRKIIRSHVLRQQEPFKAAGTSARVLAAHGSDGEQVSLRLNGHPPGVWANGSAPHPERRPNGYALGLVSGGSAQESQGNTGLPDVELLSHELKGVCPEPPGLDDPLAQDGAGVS

SMILES | Ki [5] | Ki [7] | Ki [10] | other results
Cn1c(=O)c2c(nc3n2CCCN3CCc2ccccc2)n(C)c1=O | > 25 µM | > 10 µM | 0.32 µM | Activity [1]: 57%; Inhibition [2]: 20%; Ki [3]: 2.89 µM; Activity [4]: Toxic; Ki [6]: 10 µM; Ki [8]: > 10 µM; Activity [9]: 44%; Activity [11]: 31%
Cn1c(=O)c2c(nc3n2CCCN3CCc2ccccn2)n(C)c1=O | > 25 µM | > 10 µM | > 25 µM | Activity [12]: 37%; Ki [6]: 13.4 µM
Cn1c(=O)c2c(nc3n2CCCN3CCOCc2ccc(Cl)cc2)n(C)c1=O | 10 µM | – | 1.33 µM | Activity [13]: 48%
Cn1c(=O)c2c(nc3n2CCCN3CCc2ccc(Cl)cc2)n(C)c1=O | 6.47 µM | – | 0.48 µM | Activity [14]: Toxic
CC(=O)OC(CN1CCCn2c1nc1c2c(=O)n(C)c(=O)n1C)c1ccccc1 (configuration not stated) | – | – | 1 µM | Activity [11]: 50%
CC(=O)Nc1ccc(OCCN2CCCn3c2nc2c3c(=O)n(C)c(=O)n2C)cc1 | 10 µM | > 1 µM | 2.02 µM | Activity [13]: 41%
COc1ccc(CCN2CCCn3c2nc2c3c(=O)n(C)c(=O)n2C)cc1OC | ≥ 25 µM | – | 1.21 µM | Activity [11]: 33%
COc1ccc(CCN2CCCn3c2nc2c3c(=O)n(C)c(=O)n2C)cc1 | 3.85 µM | – | 0.37 µM | –
Cn1c(=O)c2c(nc3n2CCCN3CCCc2ccccc2)n(C)c1=O | 1.99 µM | – | 1.1 µM | Activity [15]: Toxic
CC(=O)OC(c1ccccc1)C(C)N1CCCn2c1nc1c2c(=O)n(C)c(=O)n1C (configuration not stated) | – | – | 1.22 µM | –
Cn1c(=O)c2c(nc3n2CCCN3CCOCc2ccc(F)cc2)n(C)c1=O | 3.68 µM | – | 3.05 µM | –
CCCn1c(=O)c2c(nc3n2CCCN3CCc2c[nH]c3ccccc23)n(CCC)c1=O | 1.79 µM | > 1 µM | 0.9 µM | –
Cn1c(=O)c2c(nc3n2CCCN3CCNCc2ccc(F)cc2)n(C)c1=O | 2.63 µM | – | 14 µM | –
Cn1c(=O)c2c(nc3n2CCCN3CCOC(=O)Nc2cccc(Cl)c2)n(C)c1=O | > 10 µM | – | > 10 µM | Activity [16]: 33%; Activity [13]: 10%
Cn1c(=O)c2c(nc3n2CCCN3CC(O)c2ccccc2)n(C)c1=O (configuration not stated) | 25 µM | – | 1.11 µM | Activity [11]: 49%
Cn1c(=O)c2c(nc3n2CCCN3CCOC/C=C/c2ccccc2)n(C)c1=O | 10 µM | > 1 µM | 4.29 µM | Activity [13]: 36%
CC(C(O)c1ccccc1)N1CCCn2c1nc1c2c(=O)n(C)c(=O)n1C (configuration not stated) | 25 µM | – | 2.16 µM | Activity [11]: 45%
Cn1c(=O)c2c(nc3n2CCCN3CCOC(=O)Nc2ccc(Cl)cc2)n(C)c1=O | > 10 µM | – | > 10 µM | Activity [16]: 32%; Activity [13]: 24%; Activity [17]: Toxic
Cn1c(=O)c2c(nc3n2CCCN3CCNCc2ccccc2)n(C)c1=O | 7.55 µM | – | 20 µM | Ki [6]: > 10 µM; Activity [18]: 27%
Cn1c(=O)c2c(nc3n2CCCN3CCc2ccc(O)cc2)n(C)c1=O | 25 µM | > 10 µM | – | Inhibition [2]: 9%; Ki [8]: ≥ 25 µM; Activity [9]: 34%
CCCn1c(=O)c2c(nc3n2CCCN3CCc2ccccc2)n(CCC)c1=O | 0.62 µM | 3.66 µM | 0.86 µM | Ki [6]: 0.59 µM
Cn1c(=O)c2c(nc3n2CCCN3CCOC(=O)Nc2ccccc2)n(C)c1=O | > 10 µM | – | > 10 µM | Activity [16]: 35%; Activity [13]: 3%
Cn1c(=O)c2c(nc3n2CCCN3CCOc2ccc(Cl)cc2Cl)n(C)c1=O | 3.5 µM | – | 1.09 µM | –
Cn1c(=O)c2c(nc3n2CCCN3CCOCc2ccccc2)n(C)c1=O | 3.16 µM | – | 3.69 µM | –
Cn1c(=O)c2c(nc3n2CCCN3CCc2c[nH]c3ccccc23)n(C)c1=O | 25 µM | > 10 µM | 0.33 µM | Activity [1]: 56%; Inhibition [2]: 21%; Ki [3]: 4.56 µM; Ki [6]: 10 µM; Ki [8]: > 25 µM; Activity [9]: 21%
Cc1ccc(OCCN2CCCn3c2nc2c3c(=O)n(C)c(=O)n2C)cc1 | 10 µM | > 1 µM | 4.6 µM | Activity [13]: 41%
Cn1c(=O)c2c(nc3n2CCCN3CCOc2ccc(Cl)cc2)n(C)c1=O | 4.22 µM | > 1 µM | 25 µM | Activity [12]: 49%; Activity [1]: 44%; Activity [19]: 45%; Ki [6]: 10 µM
Cn1c(=O)c2c(nc3n2CCCN3CCOC(=O)Nc2ccc(F)cc2)n(C)c1=O | > 10 µM | – | ≥ 10 µM | Activity [20]: Toxic; Activity [16]: 42%; Activity [13]: 13%
CCCn1c(=O)c2c(nc3n2CCCN3CCc2ccc(OC)c(OC)c2)n(CCC)c1=O | 0.82 µM | > 1 µM | 1.33 µM | –
